Test results: patent publication US20110218158A1, “DNA CYTOSINE DEAMINASE INHIBITORS” (priority 2008, published 2011)

Molecular target: T1, APOBEC3G (Homo sapiens, UniProt Q9HC16)
T1 construct: expressed in transfected cells; crude lysate treated with RNase A
Assay: Fluorescence-based APOBEC3G DNA cytosine deaminase assay for HTS, APOBEC3G containing cell lysate
Assay type: biochemical
Conditions: for inhibited cytosine deaminase activity (FIG. 5): LOPAC1280 library screened in quadruplicate, cell lysate
Source text: FIG. 4 contains a schematic of a fluorescence based APOBEC3G DNA cytosine deaminase activity assay. The single-strand DNA oligonucleotide substrate has 3 features: i) an APOBEC3G deamination target cite 5′CCCA (with the 3rd C strongly preferred by APOBEC3G), ii) a fluorescent 6-FAM label on the 5′ end (excitable by 490 nm wavelength light) and iii) a 6-FAM ‘quenching’ molecule TAMRA on the 3′ end. This intact ssDNA substrate emits low levels of background fluorescence because the 6-FAM is quenched by the nearby TAMRA. Low-molecular mass (LMM) APOBEC3G, derived from an RNase sensitive high-molecular mass (HMM) cellular complex, efficiently deaminates the indicated cytosine base yielding a uracil. Uracil DNA glycosylase excises the uracil base, which creates an a-basic site that is sensitive to hydrolytic attack by the hydroxide ion of NaOH or heated water (H2O). Finally, cleavage of the ssDNA frees 6-FAM from inhibition by TAMRA and results in fluorescence (490 nm light is used to excite 6-FAM and fluorescence is detected at 517 nm).
APOBEC3G containing cell lysates were prepared from near-confluent APOBEC3G expressing 293 stable cell line (211-21, Harris et al., Cell 2003). DMEM growth medium was aspirated and the cells suspended in 1xPBS, 1 mM EDTA, pH 7.4. The cells were pelleted at 1.2K rpm for 5-10 minutes. The supernatant was aspirated and the tube containing the pelleted cells was placed on ice. Thirty mL of lysis buffer (25 mM HEPES, pH7.4, 150 mM NaCl, 0.5% Triton X-100, 1 mM EDTA, 1 mM MgCl2, 1 mM ZnCl2, 10% Glycerol, and Roche EDTA free complete protease inhibitor (added before use)) was added per 3-5 g cell pellet along with 20 μg/mL RNase A (from Qiagen, catalog no. 19101, 100 mg/ml RNase A solution) and the cells suspended by pipetting. The cells were transferred to a cold homogenizer and homogenized for 10 strokes. […] The protein concentration in the cell lysate was quantified using a Bio-Rad protein assay kit or DC protein assay kit, following the manufacturer's instructions.
A fluorescence-based deaminase activity assay for HTS was performed as follows: 1) 20 μl of the crude cell lysate (15 μg protein, diluted in cell lysis buffer, pH7.4) was placed into 384 well plates using Perkin Elmer flexdrop. […] 5) 3 μl N HCl+27 μl 2 M Tris.Cl (pH7.9) was added using Perkin Elmer flexdrop, mixed by shaking, and fluorescence read with excitation at 492 nm and emission at 517 nm at room temperature in LJL Analyst AD.
A 1280 compound library (LOPAC^1280™, from Sigma-Aldrich) was screened in quadruplicate using the method set forth in Example 1. […] In these experiments, each compound was evaluated a total of four times—twice on one day and twice more on the following day. […]

T1 sequence (Q9HC16 whole entry): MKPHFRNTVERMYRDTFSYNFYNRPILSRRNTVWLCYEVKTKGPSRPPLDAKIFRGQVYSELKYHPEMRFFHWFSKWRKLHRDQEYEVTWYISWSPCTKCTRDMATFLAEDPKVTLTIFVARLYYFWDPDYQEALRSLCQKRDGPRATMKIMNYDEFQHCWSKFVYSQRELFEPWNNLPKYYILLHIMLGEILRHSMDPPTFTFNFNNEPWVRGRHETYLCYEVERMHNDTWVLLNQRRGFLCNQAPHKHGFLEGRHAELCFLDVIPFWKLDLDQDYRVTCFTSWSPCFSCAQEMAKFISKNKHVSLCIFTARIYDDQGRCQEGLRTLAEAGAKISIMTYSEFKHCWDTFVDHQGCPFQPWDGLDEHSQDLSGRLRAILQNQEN

Row | SMILES | inhibited cytosine deaminase activity (FIG. 5) | inhibition at 10 µM (repeated screen, cell lysate incubated with 10 μM solution of the compound in DMSO, read-out: inhibition of fluorescence relative to positive controls (primary active)) [%]
1 | O=C(O)c1cc[c]([Hg][Cl])cc1 [4-chloromercuribenzoic acid] | Inhibitors of cytosine deaminase | 
2 | O=C(O)C1=CC(=C(c2ccc(O)c(C(=O)O)c2)c2ccc(O)c(C(=O)O)c2)C=CC1=O [ATA] | Inhibitors of cytosine deaminase | 
3 | Cc1nc(N=Nc2cc(S(=O)(=O)O)c3cc([N+](=O)[O-])cc(S(=O)(=O)O)c3c2)c(COP(=O)(O)O)c(C=O)c1O [PPNDS] | Inhibitors of cytosine deaminase | 
4 | Cc1ccc(C(=O)Nc2ccc(S(=O)(=O)O)c3cc(S(=O)(=O)O)cc(S(=O)(=O)O)c23)cc1NC(=O)c1cccc(NC(=O)Nc2cccc(C(=O)Nc3cc(C(=O)Nc4ccc(S(=O)(=O)O)c5cc(S(=O)(=O)O)cc(S(=O)(=O)O)c45)ccc3C)c2)c1 [suramin] |  | ≥ 35
